From patent publication US8809324B2, “Substituted phenyl-oxathiazine derivatives, method for producing them, drugs containing said compounds and the use thereof” (Sanofi, priority 2011, dated 2014)

Target: human 11β-HSD1 microsome fraction (Homo sapiens, UniProt P28845)
Assay: Enzymatic 11Beta-HSD1 test (SPA-based detection)
Assay type: biochemical
Conditions: human 11β-HSD1 microsomes, [1,2-3H]-cortisone, NADPH, 37° C. 1 hour
Experimental: Enzymatic 11Beta-HSD1 Test:
To measure the activity of the compounds, an SPA-based detection method (Solly et al. 2005) was employed. First of all, 20 μl of the human 11β-HSD1 microsome fraction (0.2 μg of protein), prepared in 50 mM HEPES, 0.1% BSA (w/v), were applied to a plate with 384 wells. The test compounds (0.09 μl) were applied to the assay plate in 100% DMSO. The reaction was started by addition of 20 μl of [1,2-^3H]-cortisone (0.1 μCi/[…]) in assay buffer comprising 25 mM HEPES, 100 mM KCl, 5 mM NaCl, 2 mM MgCl2 and 0.25 mM NADPH. The plate was agitated at 37° C. for 1 hour. At the same time, a stop solution comprising 20 mg/ml SPA-PVT beads, 1.6 mg/ml monoclonal cortisol antibody and 0.01 mM SSR110887 (inhibitor from the Biovitrium patent) in 50 mM HEPES, 1 M NaCl and 1 M KCl was stirred at room temperature. To stop the reaction, 25 μl of the stop solution were added to each well. The plate was agitated gently at room temperature for 1 further hour and then centrifuged at 500 gav for 1 minute, in order that the SPA beads could settle out. The plate was then read in a Wallac-1450-Microbeta unit with a standard SPA program (counting time 1 min/well). The comparative compound was glycyrrhetinic acid.
Protein and radioactive substrate were dispensed with a Biomek FX unit (Beckman Coulter) for handling liquids. The test compounds were added with a Cybi-Well equipped with a 90 nl pin tool (CyBio).
Lit.: Solly S, Mundt S S, Zokian H J, Juy-Fang Ding G, Hermanowski-Vosatka A, Strulovici B and Zheng W. High-throughput screening of 11β-Hydroxysteroid dehydrogenase type 1 in scintillation proximity format. Assay Drug Dev Technol 2005; 3:377-384.

human 11β-HSD1 microsome fraction, sequence (P28845 whole entry): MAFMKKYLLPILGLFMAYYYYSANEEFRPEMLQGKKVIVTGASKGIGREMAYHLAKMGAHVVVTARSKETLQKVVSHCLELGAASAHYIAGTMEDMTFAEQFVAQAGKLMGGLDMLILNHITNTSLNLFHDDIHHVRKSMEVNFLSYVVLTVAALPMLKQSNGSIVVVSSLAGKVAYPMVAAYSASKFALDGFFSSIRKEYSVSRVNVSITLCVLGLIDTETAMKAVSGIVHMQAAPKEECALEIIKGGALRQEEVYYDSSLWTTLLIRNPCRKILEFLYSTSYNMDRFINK

IC50 [nM] | SMILES
14 | CC1(C)OC(NC23CC4CC(CC2C4)C3)=NS(=O)(=O)[C@H]1c1ccc(-c2cccc(C(=O)O)c2)cc1 [Example 1, 4′-[(S)-2-(Hexahydro-2,5-methanopentalen-3a-ylamino)-6,6-dimethyl-4,4-dioxo-5,6-dihydro-4H-4lambda6-[1,4,3]oxathiazin-5-yl]-biphenyl-3-carboxylic acid]
24 | CC1(C)OC(NC23CC4CC(CC2C4)C3)=NS(=O)(=O)[C@H]1c1ccc(C2CCN(CCC(F)(F)F)CC2)cc1 [Example 2, ((S)-6,6-Dimethyl-4,4-dioxo-5-{4-[1-(3,3,3-trifluoropropyl)-piperidin-4-yl]phenyl}-5,6-dihydro-4H-4lambda6-[1,4,3]oxathiazin-2-yl)-(hexahydro-2,5-methanopentalen-3a-yl)amine]
22 | CC1(C)OC(NC23CC4CC2CC(C(N)=O)(C4)C3)=NS(=O)(=O)[C@@H]1c1ccc(Br)cc1 (stereo partly drawn) [Example 3, 3a-[(R)-5-(4-Bromophenyl)-6,6-dimethyl-4,4-dioxo-5,6-dihydro-4H-4lambda6-[1,4,3]oxathiazin-2-ylamino]hexahydro-2,5-methanopentalene-2-carboxamide]
34 | CC1(C)OC(NC23CC4CC2CC(C(N)=O)(C4)C3)=NS(=O)(=O)[C@@H]1c1ccc(-c2ccccc2)cc1 (stereo partly drawn) [Example 4, 3a-((R)-5-Biphenyl-4-yl-6,6-dimethyl-4,4-dioxo-5,6-dihydro-4H-4lambda6-[1,4,3]oxathiazin-2-ylamino)hexahydro-2,5-methane-pentalene-2-carboxamide]
